Assays:
Type in all cases: cell-based
MCF-7 (ER+) cells = assay: Proliferative (estrogenic) activity on MCF-7 (ER+) cells; settings: 0.1 nM; 7 days; control 100%
Method: The next step was to determine the presence or absence of estrogenic activity. To do so, cell proliferative assays were carried out on MCF-7 cells. […] Phenols of the corresponding sulfamate library 3-EO and 4-EO are referred to as library 3′-EO and library 4′-EO, respectively.
This cell assay was carried out according to a procedure previously described to determine the estrogenic activity of enzyme inhibitors on the growth of estrogen-sensitive MCF-7 cells.^77 All chemicals tested were first dissolved in DMSO and subsequent dilutions were done in the proper cell culture media. The final concentration of DMSO in the culture medium was 0.1% or less. 3-(4,5-dimethylthiazol-2-yl)-5-(3-carboxymethoxyphenyl)-2-(4-sulfophenyl)-2-H-tetrazolium (MTS) was used as an indirect colorimetric measurement of cell proliferation according to the manufacturer's instructions (Promega, Madison, Wis.). At the end of the treatments, 20 μL of MTS solution was added to each well (100 μL) and the MCF-7 cells were incubated 4 h at 37° C. The absorbance at 490 nm was then measured with a Thermo max microplate reader (Molecular Devices, Sunnyvale, Calif.). The control (culture media+DMSO) is set to 100% of cell proliferation.

T-47D cells = assay: T-47D cell proliferation (estrogenicity / cytotoxicity), MTS
[1] = system: alkaline phosphatase activity in Saos-2 cells; assay: Alkaline phosphatase assay (Saos-2 cells), phenol library; settings: 1 nM; control (no treatment) fixed at 100%
Method: We also investigated the effect of selected phenol derivatives on alkaline phosphatase activity in Saos-2 cells (FIG. 13B).
Saos-2 cells were used similarly as reported in the cell proliferation assay. The cells were seeded at a density of 2 000 cells/well and treated for 3 days with each compound to be tested. The alkaline phosphatase (ALP) activity was measured using the Sensolyte® pNPP Alkaline Phosphatase Assay Kit *Colorimetric* (AnaSpec, Freemont, Calif.) following the manufacturer's protocol. Briefly, after three days of treatment, the cells were washed twice with washing buffer (provided with the kit) and lysed with 0.2% Triton X-100. The cell lysates were centrifuged and the supernatants were used to determine ALP activity. The supernatants were deposed in a 96-well plate and incubated for 30 minutes with a p-nitrophenyl phosphate solution (provided with the kit). The absorbance at 405 nm was measured with a Thermo max microplate reader (Molecular Devices, Sunnyvale, Calif.). The control (culture media+DMSO) is set to 100% of alkaline phosphatase activity.

[2] = system: alkaline phosphatase (ALP) activity in Saos-2 cells; assay: Alkaline phosphatase (ALP) activity in Saos-2 cells
Method: ALP is an enzyme that releases inorganic phosphate from different intracellular substrates such as pyrophosphate and pyridoxal 5′-phosphate.^63 The inorganic phosphate is used in the formation of hydroxyapatite crystals which are then inserted in the extracellular protein scaffold to form the solid part of bone tissue.
Saos-2 cells were treated similarly as reported in the cell proliferation assay. The cells were seeded at a density of 2 000 cells/well and were treated with the inhibitors and the reference compounds for 3 days. The alkaline phosphatase (ALP) activity was measured using Sensolyte® pNPP Alkaline Phosphatase Assay Kit *Colorimetric* (AnaSpec, Fremont, Calif.) following the manufacturer's protocol. Briefly, after the 3 days of treatment, the cells were washed twice with washing buffer (provided with the kit) and lysed with 0.2% Triton X-100. The cell lysates were centrifuged and the supernatants were used to determine the ALP activity. The supernatants were deposed in a 96-well plate and incubated 30 min with a p-nitrophenyl phosphate solution (provided with the kit). The absorbance at 405 nm was measured with a Thermo max microplate reader (Molecular Devices, Sunnyvale, Calif.). The control (culture media+DMSO) is set to 100% of alkaline phosphatase activity.

For `C[C@]12CC[C@@H]3c4ccc(O)cc4CC[C@H]3[C@@H]1CC[C@@H]2O` [E2, 17β-estradiol, reference compound], the “proliferation of MCF-7 (ER+) cells” value (MCF-7 (ER+) cells) was 176%, the T-47D cell proliferation (T-47D cells; 0.1 nM, control 100%, 7 days) was “approximately 160%” and the “Breast cancer cells T-47D (ER+) Agonist activity (%)” value (T-47D cells; 1 μM, in % of control (100%; 0.1 nM of estradiol)) was 100%. The “ALP activity in Saos-2 cells” value [1] was 148%, the “Bone cells Saos-2 (ER+) SERM effect Alkaline phosphatase activity (%)” value ([2]; 0.1 nM) was 100% and the “stimulation of ALP activity in presence of ICI-164,384 or MPP + PHTPP” value ([2]; 0.1 nM compound, antagonists 1 μM, 3 days) was “completely blocked the stimulation”.

From patent publication US9708305B2, “Substituted 1,2,3,4-tetrahydroisoquinoline derivatives for the treatment of hormone-dependent diseases” (UNIVERSITÉ LAVAL, priority 2013, dated 2017)
